From the supplement of paper PMC4862054 come the findings set out here.

Common to all, as to settings: 72 h
Assay [1] relates to CAL-85-1. In a few lines: (§1)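 Breast cancer cell lines in 20 µl suspension were added to 384-well plates already holding compound at 5 concentrations, spaced in 10-fold steps across a compound-specific 10,000-fold range, and incubated for 72 h. CellTox Green fluorescence (485/520 nm) was read first to measure cell death, followed by CellTiter-Glo luminescence for viability after 10 min at room temperature. Each plate was normalised to 0.1 % DMSO and a positive kill control. EC50 values came from dose-response curve fits and were censored at the top concentration.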

The test system of a further assay is HCC1599. In a few lines:
as §1

Assay [2] has as its system Hs578T. The procedure, abridged:
as §1

The test system of assay [3] is MDA-MB-453. In a few lines:
as §1

The subject of assay [4] is SK-BR-3. The procedure, abridged:
as §1

The test system of assay [5] is CAL-148. The protocol: (§2)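 Drug sensitivity and resistance testing (DSRT) of breast cancer cell lines in 384-well plates, 5 concentrations in 10-fold dilutions over a compound-specific 10,000-fold range. After 72 h, cytotoxicity was read by CellTox Green fluorescence and viability by CellTiter-Glo luminescence (multiplexed), normalised to DMSO and benzethonium chloride controls. EC50 is the inflection point of the fitted dose-response curve (bottom asymptote free, so it can be relative for partial curves) and is censored at the highest tested concentration. Rows with DSS 0 (no meaningful response) were excluded.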

The subject of assay [6] is CAL-120. The procedure, abridged:
as §1

Assay [7] deals with MFM-223. The procedure, abridged: as §1
The subject of a further assay is HCC1937. The procedure, abridged:
as §1

Assay [8] concerns HDQ-P1. The procedure, abridged: as §1
Assay [9] concerns MCF-10A. The procedure, abridged:
as §1

Assay [10] concerns MDA-MB-231. The procedure, abridged:
as §1

Assay [11] has as its system CAL-51. The procedure, abridged:
(§3)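 Rows with a drug sensitivity score of zero were dropped, and EC50 was taken from the fitted percent-inhibition dose-response curve, censored at the highest concentration. Data were normalised on each plate to vehicle and a positive kill control and checked by Z'-factor. The assay seeded breast cancer cell lines in 20 µl onto 384-well plates pre-loaded with compound in 5 µl medium for 72 h, then added 2.5 µl CellTiter-Blue for 2 h at 37 °C and read fluorescence at 560/590 nm.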

In assay [12] the test system is HDQ-P1. In a few lines:
as §3
The source holds these as a separate data set.

Assay [13] relates to MDA-MB-453. The procedure, abridged:
as §3
This is another data set of the same source.

Assay [14] relates to BT-474. The procedure, abridged:
as §3

The subject of assay [15] is BT-549. The procedure, abridged:
as §3

Assay [16] concerns CAL-120. In a few lines:
as §3
The source holds these as a separate data set.

Assay [17] deals with Hs578T. In a few lines:
as §3
The source holds these as a separate data set.

Assay [18] relates to MFM-223. The procedure, abridged: as §3
This is another data set of the same source.

For assay [19], the system named is SK-BR-3. The procedure, abridged:
as §3
This is another data set of the same source.

Assay [20] has as its system CAL-148. The procedure, abridged:
as §1
This is another data set of the same source.

Assay [21] has as its system CAL-148. In a few lines: as §3
This is another data set of the same source.

The subject of assay [22] is Hs578T. The protocol: as §2
This is another data set of the same source.

Assay [23] deals with MCF-10A. The protocol: as §2
The source holds these as a separate data set.

The test system of assay [24] is MDA-MB-231. The protocol: as §2
This is another data set of the same source.

Assay [25] concerns BT-474. In a few lines:
as §1
The source holds these as a separate data set.

In assay [26] the test system is BT-549. The procedure, abridged: as §1
The source holds these as a separate data set.

Assay [27] concerns CAL-51. The procedure, abridged: as §1
This is another data set of the same source.

In assay [28] the test system is DU-4475. The procedure, abridged: as §1
The test system of a further assay is HCC1143. The procedure, abridged:
as §1

For assay [29], the system named is MDA-MB-436. The procedure, abridged:
as §1

For assay [30], the system named is MDA-MB-468. The procedure, abridged:
as §1

Assay [31] relates to CAL-85-1. The procedure, abridged: as §3
The source holds these as a separate data set.

For assay [32], the system named is DU-4475. In a few lines:
as §3
The source holds these as a separate data set.

Assay [33] relates to MDA-MB-436. In a few lines:
as §3
The source holds these as a separate data set.

The subject of assay [34] is MDA-MB-468. In a few lines: as §3
This is another data set of the same source.

Assay [35] has as its system CAL-51. The protocol: as §2
This is another data set of the same source.

Assay [36] deals with MDA-MB-436. The protocol:
as §2
The source holds these as a separate data set.

Structures are written as SMILES.

On to `Cc1cnc(NC(=O)Nc2cc(Br)c(C)cc2OC[C@@H]2CNCCO2)cn1` [Rabusertib], for which the “EC50, CellTiter-Glo” value in the assay with CAL-85-1 [1] is > 1000 nM; in the assay with HCC1599, 691 nM; in the assay on Hs578T [2], 354 nM; in the assay with MDA-MB-453 [3], 219 nM; in the assay on SK-BR-3 [4], 918 nM. The “EC50, CellTox Green” value in the assay with CAL-148 [5] is > 1000 nM.

As for `CNC(=O)c1cc(Oc2ccc(NC(=O)Nc3cc(C(C)(C)C)nn3-c3ccc4ncccc4c3)c(F)c2)ccn1` [Rebastinib], the “EC50, CellTiter-Glo” value amounted to 155 nM in the assay with CAL-120 [6] and 31.3 nM in the assay with MFM-223 [7].

`COc1cc2nccc(Oc3ccc(NC(=O)Nc4cc(C)on4)c(Cl)c3)c2cc1OC` [Tivozanib]: the “EC50, CellTiter-Glo” value was > 10000 nM in the assay with HCC1937; 3820 nM with HDQ-P1 [8]; 8730 nM with MCF-10A [9]; 8500 nM in the assay with MDA-MB-231 [10]; 5050 nM with MDA-MB-453 [3]; 1820 nM in the assay with MFM-223 [7]. The “EC50, CellTiter-Blue viability” value with CAL-51 [11] was found to be 7800 nM; in the assay on HDQ-P1 [12], 774 nM; in the assay on MDA-MB-453 [13], 2320 nM; with BT-474 [14], 2500 nM; in the assay with BT-549 [15], 7350 nM; with CAL-120 [16], 4610 nM. Besides, the “EC50, CellTiter-Blue viability” value in the assay with Hs578T [17] worked out at 4590 nM; with MFM-223 [18], 344 nM; with SK-BR-3 [19], 4270 nM.

For the compound `CC1=C(/C=C/C(C)=C/C=C/C(C)=C/C(=O)O)C(C)(C)CCC1` [Tretinoin], the “EC50, CellTiter-Glo” value worked out at 354 nM in the assay on CAL-148 [20]; 5530 nM with HCC1599; 6610 nM in the assay with Hs578T [2]; 1990 nM with MCF-10A [9]; 2600 nM in the assay with MDA-MB-231 [10]; 3230 nM in the assay on MDA-MB-453 [3]. The “EC50, CellTiter-Glo” value with SK-BR-3 [4] came to 2210 nM. Further, the “EC50, CellTiter-Blue viability” value turned out to be 43.5 nM with CAL-148 [21] and 731 nM in the assay with SK-BR-3 [19]. Also, the “EC50, CellTox Green” value in the assay on Hs578T [22] worked out at 130 nM; in the assay with MCF-10A [23], 676 nM; in the assay on MDA-MB-231 [24], 3200 nM.

With `C1CN1c1nc(N2CC2)nc(N2CC2)n1` [Triethylenemelamine], the “EC50, CellTiter-Blue viability” value in the assay on CAL-148 [21] came out at 3220 nM; in the assay on MDA-MB-453 [13], 9220 nM; in the assay on BT-549 [15], 9400 nM.

As for `CCCCC(=O)OCC(=O)[C@]1(O)Cc2c(O)c3c(c(O)c2[C@@H](O[C@H]2C[C@H](NC(=O)C(F)(F)F)[C@H](O)[C@H](C)O2)C1)C(=O)c1c(OC)cccc1C3=O` [Valrubicin], the “EC50, CellTiter-Glo” value with BT-474 [25] turned out to be 2640 nM; in the assay on BT-549 [26], 794 nM; in the assay on CAL-148 [20], 322 nM; in the assay with CAL-51 [27] it was 162 nM; in the assay with CAL-85-1 [1], 1340 nM; in the assay with DU-4475 [28], 462 nM. For the same compound, the “EC50, CellTiter-Glo” value came to 697 nM in the assay with HCC1143; 3220 nM in the assay on HCC1599; 629 nM in the assay with HCC1937; 661 nM with HDQ-P1 [8]; 944 nM in the assay with Hs578T [2]; 746 nM in the assay with MCF-10A [9]. For the same compound, the “EC50, CellTiter-Glo” value came to 4480 nM with MDA-MB-231 [10]; 311 nM in the assay with MDA-MB-436 [29]; 3050 nM in the assay on MDA-MB-453 [3]; 290 nM in the assay with MDA-MB-468 [30]; 4320 nM with MFM-223 [7]; 343 nM with SK-BR-3 [4]. Besides, the “EC50, CellTiter-Blue viability” value with CAL-148 [21] was determined as 123 nM; with CAL-51 [11] it was 148 nM; with CAL-85-1 [31], 1170 nM; in the assay with DU-4475 [32], 65.5 nM; in the assay with HDQ-P1 [12] it was 236 nM; with MDA-MB-453 [13], 830 nM. In addition, the “EC50, CellTiter-Blue viability” value in the assay with BT-474 [14] was 916 nM; with BT-549 [15], 1090 nM; in the assay with CAL-120 [16], 281 nM; in the assay with Hs578T [17], 1230 nM; in the assay with MDA-MB-436 [33], 1520 nM; in the assay on MDA-MB-468 [34] it was 369 nM. The results for the “EC50, CellTiter-Blue viability” value in the assay with MFM-223 [18] and in the assay on SK-BR-3 [19] were 2810 nM and 170 nM, respectively. Moreover, the “EC50, CellTox Green” value in the assay on CAL-148 [5] was 46.5 nM; with CAL-51 [35], 26.1 nM; in the assay with MDA-MB-436 [36] it was > 5000 nM.
